Where two headings read alike, the source gives them in different places.
Columns and labels:
HDAC1 = HDAC1 (Homo sapiens (Human), UniProt Q13547); assay: In vitro inhibitory activity towards HDAC1 (HDAC Inhibitor Drug Screening Kit); format: biochemical
Protocol: (1) The compounds to be tested were each individually prepared as 10 μM and 1 μM solutions and their inhibitory activities towards HDAC1 at these concentrations were tested.
Each dilution sample was placed in two wells and the enzyme inhibition IC50 of the compound was tested.

hERG potassium channel = hERG potassium channel (Homo sapiens (Human), UniProt Q12809); assay: Effects on hERG potassium channel; format: cell-based
Sequence of hERG potassium channel (Q12809 whole entry): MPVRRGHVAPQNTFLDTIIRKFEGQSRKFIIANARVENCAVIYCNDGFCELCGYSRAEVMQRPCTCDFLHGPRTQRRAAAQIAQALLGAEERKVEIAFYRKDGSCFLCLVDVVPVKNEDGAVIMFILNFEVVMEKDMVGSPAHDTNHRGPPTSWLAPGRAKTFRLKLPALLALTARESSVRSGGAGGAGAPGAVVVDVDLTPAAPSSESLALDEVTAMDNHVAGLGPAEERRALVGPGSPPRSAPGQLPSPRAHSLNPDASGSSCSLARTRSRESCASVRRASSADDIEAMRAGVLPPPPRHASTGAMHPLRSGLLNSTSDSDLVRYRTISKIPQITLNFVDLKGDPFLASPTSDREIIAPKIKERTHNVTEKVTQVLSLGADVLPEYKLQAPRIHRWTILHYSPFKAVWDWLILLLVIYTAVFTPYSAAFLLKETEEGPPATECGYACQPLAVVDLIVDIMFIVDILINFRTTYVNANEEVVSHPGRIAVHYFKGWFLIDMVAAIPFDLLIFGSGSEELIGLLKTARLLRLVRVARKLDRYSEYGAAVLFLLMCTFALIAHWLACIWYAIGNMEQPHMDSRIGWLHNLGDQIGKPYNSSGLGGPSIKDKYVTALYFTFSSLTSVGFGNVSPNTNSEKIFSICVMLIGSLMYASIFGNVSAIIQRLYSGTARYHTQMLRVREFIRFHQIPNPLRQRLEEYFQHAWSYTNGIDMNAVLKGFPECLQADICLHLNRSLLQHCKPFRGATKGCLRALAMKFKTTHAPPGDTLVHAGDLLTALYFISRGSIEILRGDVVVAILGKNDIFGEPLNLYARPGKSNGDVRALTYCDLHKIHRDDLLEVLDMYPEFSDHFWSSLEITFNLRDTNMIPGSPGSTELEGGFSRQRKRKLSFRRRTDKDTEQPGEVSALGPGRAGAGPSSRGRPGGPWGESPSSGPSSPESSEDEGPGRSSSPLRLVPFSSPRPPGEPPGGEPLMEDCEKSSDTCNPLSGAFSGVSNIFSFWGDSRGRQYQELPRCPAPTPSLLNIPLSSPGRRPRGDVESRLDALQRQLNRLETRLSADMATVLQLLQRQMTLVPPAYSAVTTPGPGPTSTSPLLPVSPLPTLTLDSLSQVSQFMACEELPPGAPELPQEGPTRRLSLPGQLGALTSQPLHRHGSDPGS

[1] = system: PC-3 human prostate cancer; assay: In vitro anti-proliferative effect, CCK-8 method; format: cell-based; conditions: Homo sapiens
Protocol: (§1) The inhibitory activities of the compounds towards Hut78 T lymphocytic leukemia cells, Jurkat E6-1 human T-cell lymphoma, A549 human lung cancer cells, K562 human chronic myelogenous leukemia cells, Hep3B2.1-7 human liver cancer cells, MDA-MB-435s human breast cancer cells, Colo320 human rectal cancer cell line, and PC-3 human prostate cancer were determined. The inhibition percentages as represented by IC50 values were obtained through CCK-8 method.

[2] = system: MDA-MB-435s human breast cancer cells; assay: In vitro anti-proliferative effect, CCK-8 method; format: cell-based; conditions: Homo sapiens
Protocol: as §1

[3] = system: A549 human lung cancer cells; assay: In vitro anti-proliferative effect, CCK-8 method; format: cell-based; conditions: Homo sapiens
Protocol: as §1

[4] = system: K562 human chronic myelogenous leukemia cells; assay: In vitro anti-proliferative effect, CCK-8 method; format: cell-based
Protocol: as §1

[5] = system: Jurkat E6-1 human T-cell lymphoma; assay: In vitro anti-proliferative effect, CCK-8 method; format: cell-based; conditions: Homo sapiens
Protocol: as §1

[6] = system: Hep3B2.1-7 human liver cancer cells; assay: In vitro anti-proliferative effect, CCK-8 method; format: cell-based; conditions: Homo sapiens, Hep3B
Protocol: as §1

[7] = system: Hut78 T lymphocytic leukemia cells; assay: In vitro anti-proliferative effect, CCK-8 method; format: cell-based; conditions: Homo sapiens, HuT78
Protocol: as §1

[8] = Preliminary pharmacokinetic experiment; conditions: in vivo, rat

Sequence of HDAC1 (Q13547 whole entry): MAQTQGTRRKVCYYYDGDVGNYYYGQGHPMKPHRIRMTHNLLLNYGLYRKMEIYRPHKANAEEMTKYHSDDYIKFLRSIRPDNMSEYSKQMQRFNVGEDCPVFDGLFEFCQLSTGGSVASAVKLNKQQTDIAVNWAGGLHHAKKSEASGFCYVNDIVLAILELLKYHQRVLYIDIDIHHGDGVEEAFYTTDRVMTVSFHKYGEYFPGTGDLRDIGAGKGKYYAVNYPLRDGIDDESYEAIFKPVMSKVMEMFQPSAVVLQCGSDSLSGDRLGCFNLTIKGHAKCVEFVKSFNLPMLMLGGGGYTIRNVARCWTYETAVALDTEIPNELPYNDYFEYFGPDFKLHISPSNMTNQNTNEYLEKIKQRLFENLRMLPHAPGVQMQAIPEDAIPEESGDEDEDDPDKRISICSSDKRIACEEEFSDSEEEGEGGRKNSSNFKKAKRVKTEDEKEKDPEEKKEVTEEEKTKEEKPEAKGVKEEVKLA

inhibition at 1 µM (HDAC1; compound at 1 μM): 37.9%
inhibition at 10 µM (HDAC1; compound at 10 μM): 69.1%
IC50 [1]: 2.24 µM
IC50 [2]: 14.8 µM
IC50 [3]: 21.2 µM
IC50 [4]: 17.1 µM
IC50 [5]: 2.13 µM
IC50 [6]: 15.9 µM
IC50 [7]: 3.46 µM
half-life ([8]; iv, 2 mg/kg, i.v., read-out: Intravenous half-life (converted)): 0.95 h
bioavailability ([8]; oral): 28.8%
half-life ([8]; oral, read-out: Oral half-life (converted)): 6.37 h
Structure (SMILES): Nc1ccc(F)cc1NC(=O)c1ccc(CNC(=O)c2cc3ccccc3o2)cc1 [Compound V-9]
inhibitory activity against HDAC1 compared with MS-275 (by IC50) (HDAC1; comparison with MS-275): better inhibitory activities against HDAC1 as compared with MS-275
inhibition at 10 µM (hERG potassium channel; human, hERG potassium current, 10 μM, read-out: Maximum inhibition percentage at 10 μM): 19.9 ± 6.7%
IC50 (hERG potassium channel; read-out: Half inhibition concentration for the effect on hERG potassium current IC50): > 10 µM
